Reference: patent US9593123B2, “Triazolo[4,5-D]pyrimidine derivatives” (Hoffmann-La Roche Inc., priority 2013, dated 2017)

Legend:
human CB2 receptor = human CB2 receptor (Homo sapiens (Human), UniProt P34972); assay: cAMP assay, CHO cells expressing human CB2 receptors; format: cell-based; conditions: functional cAMP assay, read-out: CB2 hcAMP EC50
Procedure: (§1) CHO cells expressing human CB1 or CB2 receptors are seeded 17-24 hours prior to the experiment 50.000 cells per well in a black 96 well plate with flat clear bottom (Corning Costar #3904) in DMEM (Invitrogen No. 31331), 1×HT supplement, with 10% fetal calf serum and incubated at 5% CO2 and 37° C. in a humidified incubator. The growth medium was exchanged with Krebs Ringer Bicarbonate buffer with 1 mM IBMX and incubated at 30° C. for 30 min. Compounds were added to a final assay volume of 100 μl and incubated for 30 min at 30° C. Using the cAMP-Nano-TRF detection kit the assay (Roche Diagnostics) was stopped by the addition of 50 μl lysis reagent (Tris, NaCl, 1.5% Triton X100, 2.5% NP40, 10% NaN3) and 50 μl detection solutions (20 μM mAb Alexa700-cAMP 1:1, and 48 μM Ruthenium-2-AHA-cAMP) and shaken for 2 h at room temperature. The time-resolved energy transfer is measured by a TRF reader (Evotec Technologies GmbH), equipped with a ND:YAG laser as excitation source. The plate is measured twice with the excitation at 355 nm and at the emission with a delay of 100 ns and a gate of 100 ns, total exposure time 10 s at 730 (bandwidth 30 nm) or 645 nm (bandwidth 75 nm), respectively. The FRET signal is calculated as follows: FRET=T730-Alexa730-P(T645-B645) with P=Ru730-B730/Ru645-B645, where T730 is the test well measured at 730 nM, T645 is the test well measured at 645 nm, B730 and B645 are the buffer controls at 730 nm and 645 nm, respectively. cAMP content is determined from the function of a standard curve spanning from 10 μM to 0.13 nM cAMP.
(§2) EC50 values were determined using Activity Base analysis (ID Business Solution, Limited). The EC50 values for a wide range of cannabinoid agonists generated from this assay were in agreement with the values published in the scientific literature.

human CB1 receptor = human CB1 receptor (Homo sapiens (Human), UniProt P21554); assay: cAMP assay, CHO cells expressing human CB1 receptors; format: cell-based; conditions: functional cAMP assay, read-out: CB1 hcAMP EC50
Chain of human CB1 receptor (P21554 whole entry): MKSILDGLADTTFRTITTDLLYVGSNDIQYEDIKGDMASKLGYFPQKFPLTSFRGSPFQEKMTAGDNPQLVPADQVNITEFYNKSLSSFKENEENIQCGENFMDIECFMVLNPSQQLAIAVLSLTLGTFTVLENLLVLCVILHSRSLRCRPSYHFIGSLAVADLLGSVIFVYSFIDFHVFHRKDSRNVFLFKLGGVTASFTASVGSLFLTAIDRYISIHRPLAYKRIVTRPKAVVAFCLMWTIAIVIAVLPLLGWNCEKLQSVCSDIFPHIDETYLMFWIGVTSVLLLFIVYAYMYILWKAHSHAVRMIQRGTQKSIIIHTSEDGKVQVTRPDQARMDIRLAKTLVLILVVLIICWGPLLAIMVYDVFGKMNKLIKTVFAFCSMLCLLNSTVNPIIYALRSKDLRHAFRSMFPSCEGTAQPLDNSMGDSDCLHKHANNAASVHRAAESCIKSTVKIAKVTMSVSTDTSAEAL
Procedure: as §1, §2

Chain of human CB2 receptor (P34972 whole entry): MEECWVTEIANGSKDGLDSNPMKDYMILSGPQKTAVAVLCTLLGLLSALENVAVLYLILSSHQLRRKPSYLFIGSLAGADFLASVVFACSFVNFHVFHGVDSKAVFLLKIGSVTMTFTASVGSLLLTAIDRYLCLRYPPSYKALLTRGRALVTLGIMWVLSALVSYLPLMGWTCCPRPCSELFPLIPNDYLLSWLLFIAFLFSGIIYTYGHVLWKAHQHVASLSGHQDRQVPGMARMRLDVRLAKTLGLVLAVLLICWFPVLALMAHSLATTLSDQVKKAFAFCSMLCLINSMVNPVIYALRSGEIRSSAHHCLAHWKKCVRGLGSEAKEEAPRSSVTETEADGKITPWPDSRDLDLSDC

Row | SMILES | EC50 (human CB2 receptor) | EC50 (human CB1 receptor)
1 | Cc1noc(Cn2nnc3c(N4CC[C@@](C)(O)C4)nc(N4CCOCC4)nc32)n1 [Example 39, (3R)-3-Methyl-1-[3-[(3-methyl-1,2,4-oxadiazol-5-yl)methyl]-5-morpholin-4-yltriazolo[4,5-d]pyrimidin-7-yl]pyrrolidin-3-ol] | 301 nM | > 10 µM
2 | OCCSc1nc(N2CCC(F)(F)C2)c2nnn(Cc3ccccc3Cl)c2n1 [Example 89, 2-[3-[(2-Chlorophenyl)methyl]-7-(3,3-difluoropyrrolidin-1-yl)triazolo[4,5-d]pyrimidin-5-yl]sulfanylethanol] | 7.4 nM | > 10 µM
3 | FC1(F)CCN(c2nc(N3CCOCC3)nc3c2nnn3Cc2ccccc2Cl)C1 [Example 14, 4-[3-[(2-Chlorophenyl)methyl]-7-(3,3-difluoropyrrolidin-1-yl)triazolo[4,5-d]pyrimidin-5-yl]morpholine] | 3.5 nM | > 10 µM
4 | C=C(C)c1nc(N2CC[C@H](O)C2)c2nnn(Cc3ccccc3Cl)c2n1 [Example 6, (3S)-1-[3-[(2-Chlorophenyl)methyl]-5-prop-1-en-2-yltriazolo[4,5-d]pyrimidin-7-yl]pyrrolidin-3-ol] | 3.6 nM | > 10 µM
5 | O=S(=O)(Cc1ccccc1)c1nc(N2CCC(F)(F)C2)c2nnn(Cc3ccccc3Cl)c2n1 [Example 87, 5-Benzylsulfonyl-3-[(2-chlorophenyl)methyl]-7-(3,3-difluoropyrrolidin-1-yl)triazolo [4,5-d]pyrimidine] | 83 nM | > 10 µM
6 | CC(C)Oc1nc(N2CC[C@H](O)C2)c2nnn(Cc3ccccc3Cl)c2n1 [Example 62, (3S)-1-[3-[(2-Chlorophenyl)methyl]-5-propan-2-yloxytriazolo[4,5-d]pyrimidin-7-yl]pyrrolidin-3-ol] | 14.8 nM | > 10 µM
7 | C#CCOc1nc(N2CCC(F)(F)C2)c2nnn(Cc3ccccc3Cl)c2n1 [Example 56, 3-[(2-Chlorophenyl)methyl]-7-(3,3-difluoropyrrolidin-1-yl)-5-prop-2-ynoxytriazolo [4,5-d]pyrimidine] | 11 nM | > 10 µM
8 | O[C@H]1CCN(c2nc(OCC(F)(F)F)nc3c2nnn3Cc2ccccc2C(F)(F)F)C1 [Example 61, (3S)-1-[5-(2,2,2-Trifluoroethoxy)-3-[[2-(trifluoromethyl)phenyl]methyl]triazolo[4,5-d]pyrimidin-7-yl]pyrrolidin-3-ol] | 7.5 nM | > 10 µM
9 | CC(C)Oc1nc(N2CCC(F)(F)C2)c2nnn(Cc3ccccc3Cl)c2n1 [Example 55, 3-[(2-Chlorophenyl)methyl]-7-(3,3-difluoropyrrolidin-1-yl)-5-propan-2-yloxytriazolo [4,5-d]pyrimidine] | 1.2 nM | > 10 µM
10 | Cc1noc(Cn2nnc3c(N4CC[C@](C)(O)C4)nc(N4CCOCC4)nc32)n1 [Example 35, (3S)-3-Methyl-1-[3-[(3-methyl-1,2,4-oxadiazol-5-yl)methyl]-5-morpholin-4-yltriazolo[4,5-d]pyrimidin-7-yl]pyrrolidin-3-ol] | 10.8 nM | > 10 µM
11 | FC1(F)CCN(c2nc(C3CC3)nc3c2nnn3Cc2ccccc2Cl)C1 [Example 4, 3-[(2-Chlorophenyl)methyl]-5-cyclopropyl-7-(3,3-difluoropyrrolidin-1-yl)triazolo[4,5-d]pyrimidine] | 1 nM | 0.75 µM
12 | FC(F)COc1nc(N2CCC(F)(F)C2)c2nnn(Cc3ccccc3Cl)c2n1 [Example 43, 3-[(2-Chlorophenyl)methyl]-5-(2,2-difluoroethoxy)-7-(3,3-difluoropyrrolidin-1-yl)triazolo[4,5-d]pyrimidine] | 26.4 nM | > 10 µM
13 | C[C@]1(O)CCN(c2nc(N3CCOCC3)nc3c2nnn3Cc2ccccc2Cl)C1 [Example 32, (3S)-1-[3-[(2-Chlorophenyl)methyl]-5-morpholino-triazolo[4,5-d]pyrimidin-7-yl]-3-methyl-pyrrolidin-3-ol] | 9.6 nM | > 10 µM
14 | CC(=O)N[C@H]1CCN(c2nc(OCC(C)(C)C)nc3c2nnn3Cc2nonc2C)C1 [Example 79, N-[(3S)-1-[5-(2,2-Dimethylpropoxy)-3-[(4-methyl-1,2,5-oxadiazol-3-yl)methyl]triazolo [4,5-d]pyrimidin-7-yl]pyrrolidin-3-yl]acetamide] | 72.7 nM | > 10 µM
15 | CC(C)CS(=O)(=O)c1nc(N2CCC(F)(F)C2)c2nnn(Cc3ccccc3Cl)c2n1 [Example 94, 3-[(2-Chlorophenyl)methyl]-7-(3,3-difluoropyrrolidin-1-yl)-5-(2-methylpropylsulfonyl)triazolo[4,5-d]pyrimidine] | 2.8 nM | > 10 µM
16 | CC(C)Oc1nc(N2CC[C@H](O)C2)c2nnn(Cc3nnnn3C)c2n1 [Example 64, (3S)-1-[3-[(1-Methyltetrazol-5-yl)methyl]-5-propan-2-yloxytriazolo[4,5-d]pyrimidin-7-yl]pyrrolidin-3-ol] | 174 nM | > 10 µM
17 | COc1ccc(Cn2nnc3c(N4CC[C@H](O)C4)nc(NC(C)(C)C)nc32)cc1 [Example 19, (3S)-1-[5-(tert-Butylamino)-3-[(4-methoxyphenyl)methyl]triazolo[4,5-d]pyrimidin-7-yl]pyrrolidin-3-ol] | 27.4 nM | > 10 µM
18 | CC(C)(C)Nc1nc(N2CCC(F)(F)C2)c2nnn(Cc3ccccc3Cl)c2n1 [Example 12, N-tert-Butyl-3-[(2-chlorophenyl)methyl]-7-(3,3-difluoropyrrolidin-1-yl)triazolo[4,5-d]pyrimidin-5-amine] | 0.9 nM | 0.365 µM
19 | COc1ccc(Cn2nnc3c(N4CC[C@@](C)(O)C4)nc(NC(C)(C)C)nc32)cc1 [Example 31, (3R)-1-[5-(tert-Butylamino)-3-[(4-methoxyphenyl)methyl]triazolo[4,5-d]pyrimidin-7-yl]-3-methylpyrrolidin-3-ol] | 56 nM | > 10 µM
20 | FC1(F)CCN(c2nc(NC3COC3)nc3c2nnn3Cc2ccccc2Cl)C1 [Example 17, 3-[(2-Chlorophenyl)methyl]-7-(3,3-difluoropyrrolidin-1-yl)-N-(oxetan-3-yl)triazolo [4,5-d]pyrimidin-5-amine] | 26.6 nM | > 10 µM
21 | CC(C)(C)Nc1nc(N2CCC(F)(F)C2)c2nnn(Cc3ncccc3Cl)c2n1 [Example 24, N-tert-Butyl-3-[(3-chloropyridin-2-yl)methyl]-7-(3,3-difluoropyrrolidin-1-yl)triazolo [4,5-d]pyrimidin-5-amine] | 3.4 nM | > 10 µM
22 | Cn1nnnc1Cn1nnc2c(N3CC[C@H](O)C3)nc(NC(C)(C)C)nc21 [Example 29, (3S)-1-[5-(tert-Butylamino)-3-[(1-methyltetrazol-5-yl)methyl]triazolo[4,5-d]pyrimidin-7-yl]pyrrolidin-3-ol] | 48.6 nM | > 10 µM
23 | CC(C)CSc1nc(N2CCC(F)(F)C2)c2nnn(Cc3ccccc3Cl)c2n1 [Example 92, 3-[(2-Chlorophenyl)methyl]-7-(3,3-difluoropyrrolidin-1-yl)-5-(2-methylpropylsulfanyl)triazolo[4,5-d]pyrimidine] | 2.5 nM | > 10 µM
24 | C[C@@]1(O)CCN(c2nc(N3CCOCC3)nc3c2nnn3Cc2ccccc2S(C)(=O)=O)C1 [Example 38, (3R)-3-Methyl-1-[3-[(2-methylsulfonylphenyl)methyl]-5-morpholin-4-yltriazolo[4,5-d]pyrimidin-7-yl]pyrrolidin-3-ol] | 312 nM | > 10 µM
25 | O[C@H]1CCN(c2nc(OCC(F)(F)F)nc3c2nnn3Cc2ccccc2Cl)C1 [Example 60, (3S)-1-[3-[(2-Chlorophenyl)methyl]-5-(2,2,2-trifluoroethoxy)triazolo[4,5-d]pyrimidin-7-yl]pyrrolidin-3-ol] | 0.8 nM | > 10 µM
26 | Cc1nonc1Cn1nnc2c(N3CCC(F)(F)C3)nc(C3CC3)nc21 [Example 5, 3-[[5-Cyclopropyl-7-(3,3-difluoropyrrolidin-1-yl)triazolo[4,5-d]pyrimidin-3-yl]methyl]-4-methyl-1,2,5-oxadiazole] | 1 nM | > 10 µM
27 | CN(c1nc(N2CCC(F)(F)C2)c2nnn(Cc3ccccc3Cl)c2n1)C(C)(C)C [Example 15, N-tert-Butyl-3-[(2-chlorophenyl)methyl]-7-(3,3-difluoropyrrolidin-1-yl)-N-methyltriazolo[4,5-d]pyrimidin-5-amine] | 2.2 nM | 0.336 µM
28 | Cn1nnnc1Cn1nnc2c(N3CCC(F)(F)C3)nc(OCC(C)(C)C)nc21 [Example 65, 7-(3,3-Difluoropyrrolidin-1-yl)-5-(2,2-dimethylpropoxy)-3-[(1-methyltetrazol-5-yl)methyl]triazolo[4,5-d]pyrimidine] | 11.9 nM | > 10 µM
